Publication PMC6098585, “Characterization and structure-activity relationships of indenoisoquinoline-derived topoisomerase I inhibitors in unsilencing the dormant Ube3a gene associated with Angelman syndrome” (Molecular Autism, 2018)
Like-named read-outs stand apart in the source and are kept apart here.

Tests used:
paternal Ube3a-YFP [1] = test: Paternal Ube3a-YFP unsilencing, fluorescence immunostaining and high-content imaging in primary cortical neurons (Ube3a^m+/pYFP); format: cell-based, mouse; conditions: for neurons expressing paternal Ube3a-YFP above threshold: 0.3 μM, n = 4 wells, YFP-positive cells / total Hoechst-positive cells
Description: We followed the protocols for fluorescent immunostaining and high-content imaging of cortical neurons as previously described. Briefly, 72 h after drug treatment, the cells were fixed with 4% paraformaldehyde at room temperature for 15 min. After rinsing with phosphate-buffered saline (PBS) three times, the cells were permeabilized with 1% Triton-X 100 in PBS, followed by blocking with 5% NGS and 0.1% Triton-X 100 in PBS at room temperature for 30 min. After blocking, the cells were incubated with primary antibody, rabbit anti-GFP (1:1000, Novus Biologicals), at 4 °C overnight. The cells were then briefly rinsed with PBS followed by incubation with secondary antibody, goat anti-rabbit Alexa Fluor 488 (1:200, Thermo Fisher/Invitrogen), at room temperature. One hour after secondary antibody incubation, the cells were rinsed with PBS and fluorescent images were acquired using a BD Pathway 855 bioimager. The acquired images were processed by CellProfiler to count the number of positive cells and measure fluorescent intensity (Additional file 2). To determine the percentage of neurons expressing paternal Ube3a-YFP, we counted the total number of cells (Hoechst) and YFP-positive cells, and the number of YFP-positive cells was divided by the total number of cells. Fluorescence intensity was measured in neurons expressing unsilenced paternal Ube3a-YFP and normalized to vehicle control.

paternal Ube3a-YFP [2] = test: Western blot of paternal UBE3A-YFP in cultured neurons from Ube3a^m+/pYFP mice; format: cell-based, mouse; conditions: 0.3 μM, 72 h, n = 3/group
Description: (§1) We followed the same procedures of Western blot analysis as previously described. In brief, 72 h after drug treatment, we collected the cultured neurons from 6-well plates and extracted total protein with protein extraction buffer. Bradford assay was performed to measure protein concentration, and 30 μg of total protein was loaded for Bis-polyacrylamide gel electrophoresis (Bio-Rad). Electrophoresed proteins were transferred to nitrocellulose membrane (0.45 μm, Bio-Rad). The membranes were blocked with 5% non-fat milk in TBS-T at room temperature for 30 min followed by overnight 4 °C incubation with primary antibodies (rabbit anti-GFP, 1:1000, Novus Biologicals; rabbit anti-Ube3a, 1:1000, Bethyl Lab; mouse anti-actin; 1:5000, Sigma). The next day, the membranes were rinsed with TBS-T three times and incubated with HPR-conjugated secondary antibodies for 1 h at room temperature (goat anti-rabbit, 1:1000, Vector Lab or goat anti-mouse, 1:1000, Vector Lab). Following secondary antibody incubation, the membranes were rinsed with TBS-T at room temperature for 1 h (4–5 times) and ECL substrates (Bio-Rad) were used to visualize immunostaining using an Amersham Imager 600 (AI600, GE Life Sciences).

[3] = Cytotoxicity test (Cyto Tox-Glo) in cultured cortical neurons; conditions: mouse, primary cultured cortical neurons from E14.5 embryos
paternal UBE3A = test: Western blot of paternal UBE3A in cultured neurons from AS model mice (Ube3a^m−/p+); format: cell-based, mouse; conditions: 0.3 μM, 72 h, vs DMSO, n = 3/group
Description: as §1

Top1 = conditions: cited from earlier work
[4] = design: method as in PMID 27169793; conditions: at the concentrations examined; cited from earlier work
ABCG2 = test system: ABCG2; design: method as in PMID 17974983; conditions: cited from earlier work
in vitro = conditions: mouse
[5] = design: method as in earlier work; conditions: cited from earlier work
MDR1 = test system: MDR1; design: method as in PMID 17974983; conditions: cited from earlier work
[6] = Table S1, nine analogues, unsilencing of paternal UBE3A-YFP, 72 h
[7] = Table S1, nine analogues, unsilencing of paternal UBE3A-YFP, 72 h, 'ambiguous' = limited effective dose range, read-out: EC50
[8] = Mus musculus, Primary cortical neuron, unsilencing of paternal UBE3A-YFP, drug 72 h from DIV 7, n = 4/group, estimated from Fig. 4, read-out: EC50
[9] = maximum response of unsilencing paternal Ube3a-YFP, fluorescence intensity normalized to vehicle control, 72 h, estimated from Fig. 4

| EC50 (paternal Ube3a-YFP [1]; [7]) [nM] | SMILES | Emax (paternal Ube3a-YFP [1]; [6]) | paternal UBE3A-YFP protein level (Western blot, normalized to actin) (paternal Ube3a-YFP [2]) | CC50 at 72 h [3] [nM] | paternal UBE3A protein level (Western blot, normalized to actin) (paternal UBE3A) | neurons expressing paternal Ube3a-YFP above threshold (paternal Ube3a-YFP [1]; 72 h) [%] | EC50 (paternal Ube3a-YFP [1]; [8]) [nM] | Emax (paternal Ube3a-YFP [1]; [9]) | also measured |
| --- | --- | --- | --- | --- | --- | --- | --- | --- | --- |
| 121 | COc1cc2c3c(n(C[C@H](O)CO)c(=O)c2cc1OC)-c1cc2c(cc1C3=O)OCO2 [DB-IV-50] | 1.39 (±0.07) | – | – | – | – | – | – | – |
| – | COc1cc2c3c(n(C[C@@H](O)CO)c(=O)c2cc1OC)-c1cc2c(cc1C3=O)OCO2 [DB-IV-58] | – | led to paternal UBE3A-YFP protein production | 2010 | high level of paternal UBE3A protein | 17.7 ± 3.87 | 31 | 1.45 (± 0.12) | – |
| – | O=C1c2ccccc2-c2c1c1ccc([N+](=O)[O-])cc1c(=O)n2CC(O)C(O)C(O)CO (centres unmarked) [DB-V-37] | – | led to paternal UBE3A-YFP protein production | 2020 | high level of paternal UBE3A protein | 14.1 ± 3.55 | 29.9 | 1.48 (± 0.08) | – |
| – | COc1cc2c3c(n(CCCn4ccnc4)c(=O)c2cc1OC)-c1cc2c(cc1C3=O)OCO2 [Indimitecan, indimitecan] | – | led to paternal UBE3A-YFP protein production | 789 | high level of paternal UBE3A protein | 23.9 ± 1.72 | 7.47 | 1.47 (± 0.10) | inhibition of Top1 enzymatic activity (Top1): ~100% |
| – | COc1cc2c3c(n(CCCN4CCOCC4)c(=O)c2cc1OC)-c1cc2c(cc1C3=O)OCO2 [Indotecan, indotecan] | – | led to paternal UBE3A-YFP protein production | – | high level of paternal UBE3A protein | 37.1 ± 5.19 | 25.6 | 1.78 (± 0.13) | tolerability in a clinical population [4]: well tolerated; substrate for transporter ABCG2 (ABCG2): not a substrate; CC50 at 72 h (in vitro): 2010 nM; CNS penetration [5]: favorable CNS penetration; inhibition of Top1 enzymatic activity (Top1): ~100%; substrate for transporter MDR1 (MDR1): not a substrate; EC50 (paternal Ube3a-YFP [1]; Mus musculus, Primary cortical neuron, read-out: EC50 to produce Ube3a unsilencing): ~26 nM |
| ~26.8 | C=CCn1c2c(c3cc(OC)c(OC)cc3c1=O)C(=O)c1cc3c(cc1-2)OCO3 [MJ-II-66A] | 1.20 (±0.05) | – | – | – | – | – | – | range of doses that produce Ube3a-YFP unsilencing before toxicities (paternal Ube3a-YFP [1]; dose-response 1E-10 to 3E-5 M, 72 h): very limited range of doses |
| 634 | COc1cc2c3c(n(CCCO)c(=O)c2cc1OC)-c1cc2c(cc1C3=O)OCO2 [MNR-IV-64] | 1.37 (±0.09) | – | – | – | – | – | – | – |
| – | CC[C@@]1(O)C(=O)OCc2c1cc1n(c2=O)Cc2cc3c(CN(C)C)c(O)ccc3nc2-1 [Topotecan] | – | led to paternal UBE3A-YFP protein production | – | high level of paternal UBE3A protein | 33.0 ± 2.56 | 30.4 | 1.51 (± 0.11) | CC50 at 72 h (in vitro): 2300 nM |
